Source: US9718858B2, “Tunable control of protein degradation in synthetic and endogenous bacterial systems” (priority 2013, dated 2017)

Legend:
[1] = tested on: mf-Lon; test: GFP-pdt degradation platform in E. coli, Example 1 (plasmid-borne aTc-inducible mf-Lon); type: cell-based; settings: for Fold Degradation: 0 ng/ml aTc versus 50 ng/ml aTc; for 50 ng/ml aTc (GFP fluorescence, untagged GFP set to 100) / 0 ng/ml aTc (GFP fluorescence, untagged GFP set to 100): GFP-pdt fusion in E. coli, 10 h; for 50 ng/ml aTc (GFP fluorescence, untagged GFP set to 100): mf-Lon induced with 50 ng/ml aTc; for 0 ng/ml aTc (GFP fluorescence, untagged GFP set to 100): no mf-Lon induction
Procedure: Strains, Plasmids and Reagents. The E. coli K-12 derivative strain MG1655Pro (F-, λ-, Sp^r, lacI, tetR) published previously^1,46 was used as the wild-type strain in all cases except for the synthetic toggle experiments where MG1655ΔlacIΔaraBAD was prepared and used as described herein. Unless otherwise noted, bacteria were grown in Luria broth (LB) at 30° with shaking and mf-Lon expression was induced with 50 ng/ml aTc. Antibiotics carbenicillin (100 ug/ml) and kanamycin (30 ug/ml) were added to the media when appropriate. All plasmids and strain mutations were verified by sequencing, and plasmid maps will be deposited in GenBank.
GFP Degradation Platform. The GFP variant GFPmut3b^47 was used for all GFP expression. GFP-pdt variants were expressed from the constitutive PlacIq promoter^48 on a high-copy plasmid containing the ColE1 origin and a kanamycin-resistance cassette. The PLtetO promoter was used to express mf-Lon on a medium-copy plasmid containing the P15A origin and ampicillin-resistance cassette.
Flow Cytometry. GFP expression was measured using a […] (BD BIOSCIENCES) flow cytometer with the following voltage settings: FCS, 340; SCS, 270; FITC (for GFP), 520; mCherry, 615. At least 10,000 cells were collected for each measurement and FloJo was used for data analysis.
Plate Fluorimetry and Optical Density. Fluorescence and optical density measurements were made with a SPECTRAMAX M5 microplate reader (MOLECULAR DEVICES) using excitation and emission wavelengths of 488 nm and 520 nm, respectively, with an emission filter cutoff at 515 nm Optical density was measured at 600 nm (0D600). All measurements were made in 200 μl in 96-well clear bottom plates.
PDT Mutagenesis Screens. Polymerase chain reaction (PCR) primers containing randomized nucleotides were used to mutagenize the indicated pdt codons. Plasmids containing the mutagenized tags fused to gfp were co-transformed with the mf-Lon expression plasmid into MG1655Pro. Transformants were picked into 96-well plates, grown to mid-log phase, diluted 1:20 into media with and without 50 ng/ml aTc and measured by plate reader after 10 h growth.

[2] = tested on: mf-Lon; test: E. coli-based GFP-pdt degradation platform, Example 2 (genomically integrated codon-optimized mf-Lon, flow cytometry); type: cell-based; settings: for 50 ng/ml ATc (GFP fluorescence, untagged GFP set to 100) / 0 ng/ml ATc (GFP fluorescence, untagged GFP set to 100): GFP-pdt fusion in E. coli, flow cytometry, 6 hours; for 50 ng/ml ATc (GFP fluorescence, untagged GFP set to 100): mf-Lon induced with 50 ng/ml ATc; for 0 ng/ml ATc (GFP fluorescence, untagged GFP set to 100): no mf-Lon induction
Procedure: Strains and Reagents. The E. coli K-12 derivative strain MG1655Pro (F-, λ-, Spr, lacI, tetR) published previously^2,42 was used as the wild-type strain in all cases except for the synthetic toggle experiments where the inventors used MG1655ΔlacIΔaraBAD, prepared as described in the herein. Unless otherwise noted, E. coli were grown in Luria broth (LB) at 30° C. with shaking and mf-Lon expression was induced with 50 ng/ml ATc. L. lactis strain […] was used for all L. lactis experiments and grown in M17 broth containing 0.5% glucose. Antibiotics carbenicillin (100 ug/ml), kanamycin (30 ug/ml) and erythromycin (10 ug/ml) were added to the media when appropriate. All plasmids and strain mutations were verified by sequencing, and plasmid maps will be deposited in GenBank.
E. coli-Based Degradation Platform. The mf-lon gene was codon optimized for E. coli expression, placed under control of the PLtetO promoter, and integrated into the lacZ locus along with 5′ and 3′ transcriptional terminators to block unwanted mf-Lon expression from any proximal genomic promoters. The GFP variant GFPmut3b was used for all GFP expression, and GFP-pdt and mCherry-pdt variants were expressed from the constitutive PlacIq promoter on a high-copy plasmid containing the ColE1 origin and the kanamycin resistance cassette kanR.
Flow Cytometry. Data for GFP and mCherry degradation dynamics were collected using an LSRFortessa cell analyzer equipped with a High Throughput Sampler (BD Biosciences), and data for the synthetic toggle switch were collected using a FACSArian flow cytometer (BD Biosciences). For each measurement, cells were fixed in 1% paraformaldehyde (PFA), held at 4° C. for up to 5 days, and then diluted 1:10 in PBS for analysis. At least 5,000 cells were collected for each measurement and FloJo (Treestar) was used for data analysis. […]

[3] = tested on: synthetic toggle switch (LacI/TetR); test: Protease-driven control of a synthetic toggle switch, Example 2; type: cell-based, E. coli
Procedure: Flow Cytometry. Data for GFP and mCherry degradation dynamics were collected using an LSRFortessa cell analyzer equipped with a High Throughput Sampler (BD Biosciences), and data for the synthetic toggle switch were collected using a FACSArian flow cytometer (BD Biosciences). For each measurement, cells were fixed in 1% paraformaldehyde (PFA), held at 4° C. for up to 5 days, and then diluted 1:10 in PBS for analysis. At least 5,000 cells were collected for each measurement and FloJo (Treestar) was used for data analysis.
Synthetic Toggle Switch. The plasmid pKDL071R8, based on pKDL07143, was altered to contain a weakened tetR ribosome binding site (RBS) to enhance toggle bistability in the minimal media conditions used. This plasmid served as the parental strain for all LacI-pdt toggle switch experiments. Pdt variants were fused to lad by overlapping PCR and cloned into pKDL071R8 using SacII and BsrGI. The arabinose inducible PBAD promoter was used to express mf-Lon from a second plasmid. Cells containing the toggle switch and mf-Lon expression plasmids were grown in 200 μl in 96-well round bottom plates at 37° C. in M9 minimal media containing 0.2% glycerol and 0.05% casamino acids, and care was taken to maintain exponential growth throughout the experiment. […]

Row | Substance | Fold Degradation [1] | 50 ng/ml aTc (GFP fluorescence, untagged GFP set to 100) [1] [%] | 0 ng/ml aTc (GFP fluorescence, untagged GFP set to 100) [1] [%] | drop in GFP following mf-Lon induction ([1]; from initial (steady-state) levels) [fold] | GFP-pdt levels compared with untagged GFP ([1]; late-log and stationary phase, constitutive expression, no mf-Lon) | GFP-pdt remaining, % of its initial levels after mf-Lon expression [2] [%] | 50 ng/ml ATc (GFP fluorescence, untagged GFP set to 100) [2] [%] | 0 ng/ml ATc (GFP fluorescence, untagged GFP set to 100) [2] [%] | toggle switching relative to LacI-pdt#3 [3]
1 | AANKNEENTNEVPTFMLNAGQANYAFA [pdt, reference compound] | 20.7 | 0.6 | 12.5 | 21 | markedly lower | 3 | 1 | 50 | 
2 | pdt#1 (AANKNEENTNEVPTFMLNAGQANRLQL) | 24.6 | 0.9 | 21.8 |  |  |  | 1 | 40 | 
3 | pdt#3A: Example 2: aa13-15 FKL, aa24-27 RRRV, SEQ ID NO 114 (AANKNEENTNEVFKLMLNAGQANRRRV) |  |  |  |  |  |  | 27 | 115 | provided temporal control over the circuit switch rate
4 | pdt#3B: Example 2: aa13-15 RAI, aa24-27 RRRV, SEQ ID NO 18 (AANKNEENTNEVRAIMLNAGQANRRRV) |  |  |  |  |  |  | 38 | 100 | provided temporal control over the circuit switch rate
5 | pdt#3C: Example 2: aa13-15 AQP, aa24-27 RRRV, SEQ ID NO 22 (AANKNEENTNEVAQPMLNAGQANRRRV) |  |  |  |  |  |  | 48 | 107 | 
6 | pdt#3D: Example 2: aa13-15 APN, aa24-27 RRRV, SEQ ID NO 19 (AANKNEENTNEVAPNMLNAGQANRRRV) |  |  |  |  |  |  | 66 | 104 | 
7 | pdt#3E: Example 2: aa13-15 PDG, aa24-27 RRRV, SEQ ID NO 115 (AANKNEENTNEVPDGMLNAGQANRRRV) |  |  |  |  |  |  | 87 | 112 | 
